Data taken from patent publication US12077503B2, “Substituted cyclic amides and their use as herbicides” (FMC CORPORATION, priority 2015, dated 2024).
Where two headings read alike, the source gives them in different places.

How the values were obtained:
Experiment in all cases: Test B flooded paddy test
Type in all cases: in vivo
[1] = system: barnyardgrass (Echinochloa crus-galli); conditions: Echinochloa crus-galli, Flood, 250 g ai/ha, read-out: Barnyardgrass plant response rating
Summary of the method: (§1)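 Visual ratings (0 none to 100 complete control) are relative to untreated plants, taken 13–15 d after treatment in a greenhouse. Test material went straight into floodwater standing 3 cm above the soil, kept constant, on plants at the 2-leaf stage.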

[2] = system: ducksalad (Heteranthera limosa); conditions: Heteranthera limosa, Flood, 250 g ai/ha, read-out: Ducksalad plant response rating
Summary of the method: as §1

[3] = system: rice (Oryra sativa); conditions: Oryza sativa, Flood, 250 g ai/ha, read-out: Rice plant response rating
Summary of the method: as §1

[4] = system: sedge, umbrella (small-flower umbrella sedge, Cyperus difformis); conditions: Cyperus difformis, Flood, 250 g ai/ha, read-out: Sedge, Umbrella plant response rating
Summary of the method: as §1

[5] = scale of 0 to 100 where 0 is no effect and 100 is complete control
[6] = 0 to 100 scale where 0 is no effect and 100 is complete control

Structure (SMILES) | pest or weed control at 250 g/ha [1, 5] [%] | pest or weed control at 250 g/ha [2, 5] [%] | pest or weed control at 250 g/ha [3, 5] [%] | pest or weed control at 250 g/ha [4, 5] [%] | pest or weed control at 250 g/ha [4, 6] [%] | pest or weed control at 250 g/ha [1, 6] [%] | pest or weed control at 250 g/ha [2, 6] [%] | pest or weed control at 250 g/ha [3, 6] [%]
CN1C[C@H](c2cc(F)cc(F)c2)[C@@H](C(=O)Nc2c(F)cccc2F)C1=O [Compound 759] | 0 | 0 | 0 | 0 |  |  |  | 
CCc1ccc([C@H]2CNC(=S)[C@@H]2C(=O)Nc2cccc(F)c2C)cc1 [Compound 761] | 0 | 95 | 0 | 0 |  |  |  | 
CCc1ccc([C@H]2CNC(=S)[C@@H]2C(=O)Nc2cccc(F)c2F)cc1 [Compound 762] | 0 | 98 | 0 | 0 |  |  |  | 
CCc1ccc([C@H]2CNC(=S)[C@@H]2C(=O)Nc2ccccc2SC)cc1 [Compound 763] | 0 | 60 | 0 | 0 |  |  |  | 
O=C1NC[C@H](c2ccc3c(c2)OCO3)[C@H]1C(=O)Nc1ccccc1F [Compound 767] | 0 | 100 | 0 | 0 |  |  |  | 
O=C1NC[C@H](c2ccc(OC(F)F)cc2)[C@H]1C(=O)Nc1ccccc1F [Compound 778] | 0 | 100 | 0 | 0 |  |  |  | 
CC(F)(F)c1cccc([C@H]2CNC(=O)[C@@H]2C(=O)Nc2ccc(F)cc2F)c1 [Compound 781] | 65 | 100 | 0 | 0 |  |  |  | 
CC(F)(F)c1cccc([C@H]2CNC(=O)[C@@H]2C(=O)Nc2ccccc2F)c1 [Compound 782] | 65 | 100 | 0 | 0 |  |  |  | 
O=C1NC[C@H](c2ccc3c(c2)CCO3)[C@H]1C(=O)Nc1cccc(F)c1F [Compound 785] | 40 | 90 | 0 | 0 |  |  |  | 
Cc1cc([C@H]2CNC(=O)[C@@H]2C(=O)Nc2ccc(F)cc2F)ccc1Cl [Compound 791] | 0 | 100 | 0 | 0 |  |  |  | 
O=C(Nc1cccc(F)c1F)[C@H]1C(=O)N(O)CC[C@@H]1c1ccc(F)cc1 [Compound 805] | 0 | 0 | 0 | 0 |  |  |  | 
CSc1ccccc1NC(=O)[C@H]1C(=O)N(C)CC[C@@H]1c1ccc2c(c1)OC(F)(F)O2 [Compound 814] | 0 | 50 | 0 | 60 |  |  |  | 
CN1C[C@H](c2cc(F)c(C(F)(F)F)c(F)c2)[C@@H](C(=O)Nc2ccccc2F)C1=O [Compound 899] | 55 | 10 | 0 | 0 |  |  |  | 
COc1c(F)ccc([C@H]2CNC(=O)[C@@H]2C(=O)Nc2ccccc2S(C)(=O)=O)c1Cl [Compound 916] | 0 | 100 | 0 | 0 |  |  |  | 
CN1CC[C@H](c2cccc(Cl)c2)[C@@H](C(=O)Nc2ccccc2F)C1=O [Compound 922] | 0 | 0 | 0 | 0 |  |  |  | 
CN1CC[C@H](c2cccc(Cl)c2)[C@@H](C(=O)Nc2ccccc2S(C)(=O)=O)C1=O [Compound 923] | 0 | 0 | 0 | 0 |  |  |  | 
O=C(Nc1cccc(Cl)c1F)[C@H]1C(=O)N(C2CC2)CC[C@@H]1c1cccc(C(F)(F)F)c1 [Compound 926] | 0 | 0 | 0 | 0 |  |  |  | 
CS(=O)(=O)c1ccccc1NC(=O)[C@H]1C(=O)N(C2CC2)CC[C@@H]1c1cccc(C(F)(F)F)c1 [Compound 927] | 0 | 0 | 0 | 0 |  |  |  | 
CN1C[C@H](c2cc(F)cc(C(F)(F)F)c2)[C@@H](C(=O)Nc2cccc(Cl)c2F)C1=O [Compound 995] | 25 | 70 | 0 |  | 30 |  |  | 
Cc1cc([C@H]2CN(C)C(=O)[C@@H]2C(=O)Nc2ccccc2F)no1 [Compound 1194] |  |  |  |  | 0 | 0 | 0 | 0
N#Cc1cc([C@H]2CNC(=O)[C@@H]2C(=O)Nc2ccccc2F)ccc1F [Compound 1199] |  |  |  |  | 0 | 40 | 95 | 0
COc1cc(C(F)(F)F)ccc1[C@H]1CNC(=O)[C@@H]1C(=O)Nc1cccc(F)c1F [Compound 1203] |  |  |  |  | 0 | 30 | 100 | 0
N#Cc1ccc([C@H]2CNC(=O)[C@@H]2C(=O)Nc2cccc(F)c2F)cc1 [Compound 1206] |  |  |  |  | 0 | 0 | 95 | 15
COc1ccc([C@H]2CN(C)C(=O)[C@@H]2C(=O)Nc2ccccc2SC)c(OC)c1 [Compound 1216] |  |  |  |  | 0 | 0 | 0 | 0
COc1cc([C@H]2CN(C)C(=O)[C@@H]2C(=O)Nc2ccccc2SC)cc(OC)c1OC [Compound 1218] |  |  |  |  | 0 | 0 | 40 | 0
Cc1ccc([C@H]2CCN(C)C(=O)[C@@H]2C(=O)Nc2ccccc2C(F)(F)F)cc1 [Compound 1219] |  |  |  |  | 40 | 0 | 60 | 0
Cc1ccc([C@H]2CCN(C)C(=O)[C@@H]2C(=O)Nc2cccc(Cl)c2F)cc1 [Compound 1223] |  |  |  |  | 0 | 80 | 90 | 30
CN1CC[C@H](c2ccc(C(F)(F)F)cc2)[C@@H](C(=O)Nc2ccccc2C(F)(F)F)C1=O [Compound 1224] |  |  |  |  | 0 | 0 | 70 | 0
CN1CC[C@H](c2ccc(C(F)(F)F)cc2)[C@@H](C(=O)Nc2ccc(F)c(F)c2F)C1=O [Compound 1226] |  |  |  |  | 0 | 60 | 100 | 20
